Results from patent publication US9000044B2, “Substituted naphthylacetic acids” (Hoffmann-La Roche Inc., priority 2012, dated 2015).

How the values were obtained:
Th2 cells = experiment: DK-PGD2-Induced IL-13 Production Assay in Th2 Cells; assay type: cell-based; details: human Th2 cells; 500 nM DK-PGD2; 4 hrs at 37° C.; IL-13 by ELISA
Description: DK-PGD2-Induced IL-13 Production Assay in Th2 Cells
Cultures of Th2 cells were established from blood of healthy human volunteers according to the following procedure. Peripheral blood mononuclear cells (PBMC) were first isolated from 50 mL of fresh blood by Ficoll-Hypaque density gradient centrifugation, followed by CD4^+ cell purification using a CD4^+ T Cell Isolation Kit II (from Miltenyi Biotec Inc.). The CD4^+ T cells were then differentiated to Th2 cells by culturing the cells in X-VIVO 15® medium (from Cambrex BioScience Walkersville Inc.) containing 10% human AB serum (serum of blood type AB from Invitrogen Corporation), 50 U/mL of recombinant human interleukin-2 (rhIL-2) (from PeproTech Inc.) and 100 ng/mL of recombinant human interleukin-4 (rhIL-4) (from PeproTech Inc.) for 7 days. […] In general, 70% to 80% of the Th2 cells used in the assay are CRTH2-positive when analyzed by fluorescence-activated cell sorting using the BM16 antibody (as previously described) conjugated to Alexa Fluor 647.
The spontaneous production of IL-13 by Th2 cells was determined in the absence of DK-PGD2 stimulation and the value was subtracted from that in the presence of each compound for percent inhibition and IC50 calculations. […]

human CRTH2 = human CRTH2 (Homo sapiens (Human), UniProt Q9Y5Y4); experiment: Calcium Flux Assay Using Fluorometric Imaging Plate Reader (FLIPR); assay type: cell-based; details: CHO-K1 cells with G-alpha 16 and human CRTH2; inhibition of DK-PGD2 ligand-induced Ca2+ flux
Chain of human CRTH2 (Q9Y5Y4 whole entry): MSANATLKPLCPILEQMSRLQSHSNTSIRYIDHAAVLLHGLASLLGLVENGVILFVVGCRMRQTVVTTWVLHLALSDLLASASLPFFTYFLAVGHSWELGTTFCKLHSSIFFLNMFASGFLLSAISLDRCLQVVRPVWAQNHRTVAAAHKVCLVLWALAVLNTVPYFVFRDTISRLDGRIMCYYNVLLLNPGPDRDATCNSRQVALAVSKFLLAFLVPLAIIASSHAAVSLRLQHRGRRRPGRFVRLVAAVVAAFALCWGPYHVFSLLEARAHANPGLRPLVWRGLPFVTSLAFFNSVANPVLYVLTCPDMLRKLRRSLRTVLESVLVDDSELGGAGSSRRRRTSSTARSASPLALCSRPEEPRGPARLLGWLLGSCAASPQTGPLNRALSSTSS

Cc1c(CC(=O)O)cc2ccc(Cl)cc2c1-c1ccc(S(=O)(=O)N2CCCC2)cc1 [Example 33, {6-Chloro-3-methyl-4-[4-(pyrrolidine-1-sulfonyl)-phenyl]-naphthalen-2-yl}-acetic acid]
IC50 (Th2 cells): 8 nM | IC50 (human CRTH2): 0.8 nM
